Format: physicochemical
Protocol: The measured values for the tested systems were Δπ=245 atmospheres, A=2.41 cm^2, S=333 mg/ ml. Thickness of the membrane was measured directly with a table micrometer. Osmotic pressure was measured on saturated solutions of potassium chloride at 37° C. using a Knauer model VPO vapor pressure osmometer and standard reference solutions of known osmotic pressure for comparison. Surface area of the tablet core was determined by first measuring the dimensions of the tablet core and then calculating surface area using standard mensuration formulae. Drug solubility was determined by measuring the concentration of a saturated solution of potassium chloride by conductivity analysis using a conductivity meter and reference solutions of potassium chloride of known aqueous concentrations. Average release rate was calculated by measuring the mass of potassium chloride released per 2-hour intervals of time according to the experimental procedures described in Example 3. Then, the total mass of potassium chloride released was summed for all whole 2-hour intervals between 20% and 70% (100 mg to 350 mg of potassium chloride) of the initial dose present within the dosage form (500 mg). Finally, the total mass of drug released during these whole intervals was divided by the sum of these time intervals to arrive at the average release rate. […]

In the case of `[Cl-].[K+]` [potassium chloride], the “drug solubility S” value (saturated aqueous solution) was 333 mg/mL and the “osmotic pressure Δπ” value (saturated solution at 37° C.) was 245 atmospheres.
